Patent US9598393B2, “Structural variants of mycolactones for use in modulating inflammation, immunity and pain” (priority 2011, dated 2017)
Like-named read-outs stand apart in the source and are kept apart here.

How the values were obtained:
[1] = system: IL-2 production by Jurkat T cells; experiment: Immunosuppressive activity: activation-induced IL-2 production, ELISA; format: cell-based, human; conditions: for Cytokine production (M.A.: mean absorbance) (C) % relative to control / IC50: Jurkat T cells; for Cytokine production (M.A.: mean absorbance) (C) % relative to control: PMA + calcium ionophore, IL-2 ELISA; for IC50: IL-2, % inhibition relative to control, read-out: Cytokine production (C): IC50 value (concentration at which the compound induces 50% of mycolactone maximal activity); for Cytokine production (C): corresponding % of mycolactone activity (in brackets): relative to mycolactone (100%)
Method: (C) The immunosuppressive activity of mycolactone and variants was measured on Jurkat T cells (ATCC®; TIB-152™ clone E6-1), as models of human T lymphocytes. Cells were inoculated in 96-well plates (5×10^5 cells/well in RPMI 1640 medium supplemented with 10% fetal calf serum and 2 mM L-Glutamine) then incubated with serial dilutions of the various compounds for 4 h, and stimulated for 20 h with 50 ng/ml phorbol-12-myristate-13-acetate (PMA) and 1 μg/ml calcium ionophore. The production of IL-2 was then assessed in culture supernatants by ELISA.

[2] = system: epithelial HeLa cell line; experiment: Cytopathic activity, MTT assay (effect on global cell metabolic activity); format: cell-based, human; conditions: for Metabolic activity (MA: mean absorbance) (A) % relative to control / IC50: HeLa cells, 48 h, MTT; for IC50: % inhibition relative to control, read-out: Metabolic activity (A): IC50 value (concentration at which the compound induces 50% of mycolactone maximal activity); for Metabolic activity (A): corresponding % of mycolactone activity (in brackets): relative to mycolactone (100%); for cytopathic activity, reduction compared to mycolactones A/B: human
Method: (A) The cytopathic activity of mycolactone and variants was assessed in a [3-(4,5-Dimethylthiazol-2-yl)-2,5-Diphenyltetrazolium Bromide] (MTT) assay, using the epithelial HeLa cell line (ATCC®; CCL-2) as a model. Briefly, HeLa cells were plated in 96-well plates (10^4 cells/well) in Dulbecco's Modified Eagle culture medium supplemented with 10% fetal calf serum and 2 mM L-Glutamine. After 16 h, mycolactone or variants dilutions (final concentration 0.4-8 μM) were added to the wells, and incubated with the cells for 48 h, prior to the addition of MTT at 50 μg/ml. After 4 h, culture supernatants were removed and the formed formazan crystals dissolved in dimethyl sulfoxide (DMSO) for absorbance measurement.

[3] = system: CD62-L receptor expression by human peripheral blood cells (PBLs); experiment: T cell homing: expression of CD62-L receptor, flow cytometry; format: cell-based; conditions: for CD62-L expression (MFI: mean fluorescence intensity) (D) % relative to control / IC50: human PBLs, 72 h; for IC50: % inhibition relative to control, read-out: CD62-L expression (D): IC50 value (concentration at which the compound induces 50% of mycolactone maximal activity); for CD62-L expression (D): corresponding % of mycolactone activity (in brackets): relative to mycolactone (100%)
Method: (D) The effect of mycolactone and variants on T cell homing was assessed through their inhibitory effect on the expression of CD62-L receptor by human peripheral blood cells (PBLs). Human PBLs were isolated from total blood by Ficoll density gradient centrifugation. They were incubated in 96-well plates (10^5 cells/well in RPMI 1640 medium supplemented with 10% fetal calf serum and 2 mM L-Glutamine) with mycolactone or variant for 72 h. Cells were then fixed for 20 min in 4% paraformaldehyde (PFA) and stained with an anti-CD62-L antibody coupled with phycoerythrin in a solution of PBS, BSA 0.5%, saponin 0.05%, then analysed by flow cytometry.

HeLa cell = experiment: Cytotoxicity by Trypan Blue dye exclusion (cell viability); format: cell-based, human; conditions: for cytotoxicity compared to mycolactones A/B: at 16 μM
Method: (B) HeLa cell death being negligible in the concentration and time frame conditions used in (A), the cytotoxicity of 16 μM mycolactone and variants was evaluated after 48 h of incubation by cell exclusion of the Trypan Blue dye. Here, one part of Trypan blue (0.4% in phosphate-buffered saline PBS) was mixed with one part cell suspension (recovered from cell culture wells by trypsin treatment). The mixture was incubated for 3 min at room temperature and unstained (viable) and stained (nonviable) cells counted separately with a hemacytometer.

| Molecule | Cytokine production (M.A.: mean absorbance) (C) % relative to control ([1]; 0.4 μM) | Cytokine production (M.A.: mean absorbance) (C) % relative to control ([1]; 4 μM) | Cytokine production (M.A.: mean absorbance) (C) % relative to control ([1]; 8 μM) | IC50 [1] | Cytokine production (C): corresponding % of mycolactone activity (in brackets) [1] | Metabolic activity (MA: mean absorbance) (A) % relative to control ([2]; 0.4 μM) | Metabolic activity (MA: mean absorbance) (A) % relative to control ([2]; 4 μM) | Metabolic activity (MA: mean absorbance) (A) % relative to control ([2]; 8 μM) | IC50 [2] | Metabolic activity (A): corresponding % of mycolactone activity (in brackets) [2] | CD62-L expression (MFI: mean fluorescence intensity) (D) % relative to control ([3]; 4 μM) | CD62-L expression (MFI: mean fluorescence intensity) (D) % relative to control ([3]; 8 μM) | CD62-L expression (D): corresponding % of mycolactone activity (in brackets) [3] | cytotoxicity compared to mycolactones A/B (HeLa cell) | IC50 ([1]; Homo sapiens) | IC50 ([2]; Homo sapiens) | cytopathic activity, reduction compared to mycolactones A/B [2] | IC50 ([3]; T-cell) | cytotoxic activity compared to compound 20a (HeLa cell) | cytopathic activity compared to compound 20a [2] | also measured |
| --- | --- | --- | --- | --- | --- | --- | --- | --- | --- | --- | --- | --- | --- | --- | --- | --- | --- | --- | --- | --- | --- |
| 2,2-difluoro-4,6,10,12-tetramethyl-8-(4-{1-[(2S)-2-[(2R,4E,7S,8S)-7-methyl-12-oxo-8-{[(2E,4E,6E,8E,10E,12S,13S,15S)-12,13,15-trihydroxy-4,6,10-trimethylhexadeca-2,4,6,8,10-pentaenoyl]oxy}-1-oxacyclododec-4-en-2-yl]propyl]-1H-1,2,3-triazol-4-yl}butyl)-1λ^5,3-diaza-2λ^4-boratricyclo[7.3.0.0^3,7]dodeca-1(12),4,6,8,10-pentaen-1-ylium [Compound 28] | 20% | 50% | 70% | 4 µM | 2.5% | 0% | 20% | 35% | > 16 µM | < 20% |  |  |  |  |  |  |  |  |  |  |  |
| 2,2-difluoro-8-(4-{1-[(2S)-2-[(2R,4E,7S,8S)-8-hydroxy-7-methyl-12-oxo-1-oxacyclododec-4-en-2-yl]propyl]-1H-1,2,3-triazol-4-yl}butyl)-4,6,10,12-tetramethyl-1λ^5,3-diaza-2λ^4-boratricyclo[7.3.0.0^3,7]dodeca-1(12),4,6,8,10-pentaen-1-ylium [Compound 29] | 18% | 70% | 95% | 3 µM | 3.3% | 0% | 30% | 40% | 16 µM | 20% | 100% | 100% | 1.5% |  |  |  |  |  |  |  | IC50 [3]: 2 µM |
| CC(=C/C=C/C(C)=C/[C@H](O)[C@@H](O)C[C@H](C)O)C=C(C)/C=C/C(=O)O[C@H]1CCCC(=O)O[C@@H]([C@@H](C)C/C(C)=C/[C@@H](C)[C@H](O)C[C@@H](C)O)C/C=C/C[C@@H]1C (racemic) [Compound 20a, (6S,7S,9E,12R)-12-[(2S,4E,6R,7R,9R)-7,9-dihydroxy-4,6-dimethyldec-4-en-2-yl]-7-methyl-2-oxo-1-oxacyclododec-9-en-6-yl(2E,4E,6E,8E,10E,12S,13S,15S)-12,13,15-trihydroxy-4,6,10-trimethylhexadeca-2,4,6,8,10-pentaenoate] | 0% | 40% | 70% |  | 1.6% | 0% | 10% | 30% |  | 25% |  |  |  | equivalent cytotoxicity | 6 µM | 14 µM | 4 fold |  |  |  |  |
| CC(=C/C=C/C(C)=C/[C@H](O)[C@@H](O)C[C@@H](C)O)C=C(C)/C=C/C(=O)O[C@H]1CCCC(=O)O[C@@H]([C@@H](C)C/C(C)=C/[C@@H](C)[C@H](O)C[C@@H](C)O)C/C=C/C[C@@H]1C (racemic) [Compound 20b, (6S,7S,9E,12R)-12-[(2S,4E,6R,7R,9R)-7,9-dihydroxy-4,6-dimethyldec-4-en-2-yl]-7-methyl-2-oxo-1-oxacyclododec-9-en-6-yl(2E,4E,6E,8E,10E,12S,13S,15R)-12,13,15-trihydroxy-4,6,10-trimethylhexadeca-2,4,6,8,10-pentaenoate] | 20% | 55% | 92% |  | 2.5% | 0% | 10% | 15% |  | 23% | 0% | 50% | 0.4% | equivalent cytotoxicity | 4 µM | 15 µM | 4 fold | 8 µM |  |  |  |
| CC(=C/C=C/C(C)=C/[C@@H](O)[C@H](O)C[C@@H](C)O)C=C(C)/C=C/C(=O)O[C@H]1CCCC(=O)O[C@@H]([C@@H](C)C/C(C)=C/[C@@H](C)[C@H](O)C[C@@H](C)O)C/C=C/C[C@@H]1C (racemic) [Compound 20c, (6S,7S,9E,12R)-12-[(2 S,4E,6R,7R,9R)-7,9-dihydroxy-4,6-dimethyldec-4-en-2-yl]-7-methyl-2-oxo-1-oxacyclododec-9-en-6-yl(2E,4E,6E,8E,10E,12R,13R,15R)-12,13,15-trihydroxy-4,6,10-trimethylhexadeca-2,4,6,8,10-pentaenoate] | 18% | 35% | 65% |  | 1.5% | 0% | 20% | 25% |  | < 20% | 0% | 10% | < 0.2% |  | 6.5 µM | > 16 µM |  | > 16 µM | significantly reduced | significantly reduced |  |
| CC(=C/C=C/C(C)=C/C[C@@H](O)CC(C)O)C=C(C)/C=C/C(=O)O[C@H]1CCCC(=O)O[C@@H]([C@@H](C)C/C(C)=C/[C@@H](C)[C@H](O)C[C@@H](C)O)C/C=C/C[C@@H]1C (stereo in doubt) [Compound 20d, (6S,7S,9E,12R)-12-[(2S,4E,6R,7R,9R)-7,9-dihydroxy-4,6-dimethyldec-4-en-2-yl]-7-methyl-2-oxo-1-oxacyclododec-9-en-6-yl(2E,4E,6E,8E,10E,13R,15R)-13,15-dihydroxy-4,6,10-trimethylhexadeca-2,4,6,8,10-pentaenoate] | 12% | 30% | 55% |  | 1.4% | 0% | 20% | 25% |  | < 20% | 0% | 0% |  |  | 7.3 µM | > 16 µM |  |  | significantly reduced | significantly reduced |  |
